Tests used:
A549 tumors = experiment: Anti-tumor efficacy of Compound 1 in the A549 xenograft model (Example 11); assay type: in vivo, mice
Protocol: Female BALB/c nude mice were inoculated subcutaneously in the right flank with A549 cells for tumor development. Eight days after tumor inoculation, mice with tumor sizes ranging from 100-200 mm^3 (average tumor size 156 mm^3) were selected and assigned into groups using stratified randomization with 8 mice per group based upon their tumor volumes. The treatments were started from the day of randomization (defined as D0), Group 1 was treated with Vehicle control, 10 ml/kg, IP, bid×21; Group 4 was treated with Compound 1; 1.4 mg/kg, SC, 5d ON, 2 d OFF×3 cycles; and Group 5 was treated with Compound 1, 3.3 mg/kg, IV, tiw, (Fri, Sun, Tues), ×3 cycles. The tumor sizes were measured two times per week during the treatment. The entire study was terminated on D21 after start of the treatment. All treatments were well-tolerated without any adverse effects or significant body weight loss.

EL4 tumors = experiment: Anti-tumor efficacy of Compound 1 with and without anti-PD-1 in the subcutaneous EL4 murine lymphoma model (Example 2C); assay type: in vivo, Mus musculus; conditions: for ILS (%) / MST: endpoint tumor volume 2000 mm^3
Protocol: Female C57BL/6 mice were inoculated subcutaneously at the right flank with EL4 cells for tumor development. Five days after tumor inoculation, 48 mice with tumor size ranging from 50-76 mm^3 (average tumor size 65 mm^3) were selected and assigned into 6 groups using stratified randomization with 8 mice per group based upon their tumor volumes. The treatments were started from the day of randomization (defined as D0), Group 1 was treated with Vehicle (Tween 80:Ethanol:Saline—5:5:90 v/v/v), s.c., qd×4, Group 2 was treated with anti-PD-1 10 mg/kg i.p. q4d×4, Group 3 was treated with Compound 1 0.3 mg/kg s.c. q.d.×14, Group 4 was treated with Compound 1 0.3 mg/kg s.c. q.d.×14+anti-PD-1 10 mg/kg i.p. q4d×4, Group 5 was treated with Compound 1 1 mg/kg s.c. q.d.×14, Group 6 was treated with Compound 1 1 mg/kg s.c. q.d.×14+anti-PD-1 10 mg/kg i.p. q4d×4. The tumor sizes were measured three times per week during the treatment. The entire study was terminated on D19 after start of the treatment.
Animal Species: Mus musculus; Strain: […]; Age: 6-8 weeks; Sex: female; Body weight (at treatment start): 17-22 g.
The EL4 tumor cells were maintained in vitro as a monolayer culture in DMEM medium supplemented with 10% heat inactivated horse serum and 100 μg/mL penicillin streptomycin at 37° C. in an atmosphere of 5% CO2 in air. The tumor cells were routinely subcultured twice weekly by trypsin-EDTA treatment. The cells growing to a confluency around 70%-80% were harvested and counted for tumor inoculation. The cultured EL4 were harvested, re-suspended in base medium at a density of […] with viability>90%. Each mouse was inoculated subcutaneously at the right flank with 2×10^5 in 0.1 ml base medium for tumor development.
The treatments were started on day 5 after tumor inoculation when the tumor size reached 50-76 mm^3 (average tumor size 65 mm^3). Each group consisted of 8 tumor bearing mice. The testing article was administrated at the dosing volume indicated to the mice according to the predetermined regimen as shown Table 2C-1. Testing article formulations were prepared according to standard procedures. Details regarding tumor measurements and endpoints, and statistical analysis are provided in EXAMPLE 3.
Tumor sizes were measured three times a week in two dimensions using a caliper, and the volume expressed in mm^3 using the formula: V=0.5 a×b^2 where a and b are the long and short diameters of the tumor, respectively. The tumor sizes were then used for the calculations of both tumor growth inhibition (TGI) and T/C values.
TGI is calculated for each group using the formula: […]
TVTreatment_DayN is the average tumor volume of a treatment group on a given day, TVTreatment_Day0 is the average tumor volume of the treatment group on the first day of treatment, TVVehicle_DayN is the average tumor volume of the vehicle control group on a given day, and TVVehicle_Day0 is the average tumor volume of the vehicle group on the first day of treatment.
The T/C value (in percent) is an indication of antitumor effectiveness, T/C (%)=RTVTreatment/RTVControl×100% (RTVTreatment: the mean RTV of the treatment group; RTVControl: the mean RTV of the vehicle treated group). RTV (relative tumor volume)=TVDayN/TVDay0. TVDayN and TVDay0 is the tumor volume on day N and Day 0 respectively. T/C (%)≤42% is considered as significant antitumor activity and <10% is considered as highly significant antitumor activity by the National Cancer Institute criteria.
Animal survival curve: When an individual animal reached to the termination endpoint (TV>2000 mm^3), the mouse was euthanized. The time from treatment initiation to the termination was deemed as its survival time. Survival curve was plotted by Kaplan-Meier method. Median survival time (MST) was calculated for each group. Increase of life span (ILS) was calculated according to the following formula: […]
ILS (%)>25% is considered as a biologically significant survival benefit. […]

[1] = Group 4, 1.4 mg/kg SC 5 d ON 2 d OFF x3 cycles
[2] = Group 4, 1.4 mg/kg SC 5 d ON 2 d OFF x3 cycles, day 21
[3] = Group 5, 3.3 mg/kg IV tiw x3 cycles
[4] = Group 5, 3.3 mg/kg IV tiw x3 cycles, day 21

CC(=O)N[C@@H](Cc1c[nH]c2ccccc12)C(=O)N[C@@H](CCC(=O)C=[N+]=[N-])C(=O)OC(C)C [Compound 1, Isopropyl (S)-2-((S)-2-acetamido-3-(1H-indol-3-yl)propanamido)-6-diazo-5-oxohexanoate]
RTV at day 21 (A549 tumors; [1]): 8.61 ± 1.30
Tumor Size at day 21 (A549 tumors; [1]): 1300 ± 161 mm^3
Tumor volume (A549 tumors; Group 4, 1.4 mg/kg SC 5 d ON 2 d OFF x3 cycles, day 0): 155 ± 10 mm^3
Tumor volume (A549 tumors; Group 4, 1.4 mg/kg SC 5 d ON 2 d OFF x3 cycles, day 4): 187 ± 12 mm^3
Tumor volume (A549 tumors; Group 4, 1.4 mg/kg SC 5 d ON 2 d OFF x3 cycles, day 7): 273 ± 25 mm^3
Tumor volume (A549 tumors; Group 4, 1.4 mg/kg SC 5 d ON 2 d OFF x3 cycles, day 11): 500 ± 59 mm^3
Tumor volume (A549 tumors; Group 4, 1.4 mg/kg SC 5 d ON 2 d OFF x3 cycles, day 14): 658 ± 92 mm^3
Tumor volume (A549 tumors; Group 4, 1.4 mg/kg SC 5 d ON 2 d OFF x3 cycles, day 18): 1050 ± 112 mm^3
T/C (A549 tumors; [2]): 75.88%
TGI (A549 tumors; [2]): 28.57%
Tumor volume (A549 tumors; [2]): 1300 ± 161 mm^3
RTV at day 21 (A549 tumors; [3]): 9.55 ± 1.16
Tumor Size at day 21 (A549 tumors; [3]): 1453 ± 171 mm^3
Tumor volume (A549 tumors; Group 5, 3.3 mg/kg IV tiw x3 cycles, day 0): 156 ± 10 mm^3
Tumor volume (A549 tumors; Group 5, 3.3 mg/kg IV tiw x3 cycles, day 4): 180 ± 12 mm^3
Tumor volume (A549 tumors; Group 5, 3.3 mg/kg IV tiw x3 cycles, day 7): 268 ± 21 mm^3
Tumor volume (A549 tumors; Group 5, 3.3 mg/kg IV tiw x3 cycles, day 11): 473 ± 39 mm^3
Tumor volume (A549 tumors; Group 5, 3.3 mg/kg IV tiw x3 cycles, day 14): 647 ± 66 mm^3
Tumor volume (A549 tumors; Group 5, 3.3 mg/kg IV tiw x3 cycles, day 18): 1107 ± 119 mm^3
T/C (A549 tumors; [4]): 84.12%
TGI (A549 tumors; [4]): 19.04%
Tumor volume (A549 tumors; [4]): 1453 ± 171 mm^3
ILS (%) (EL4 tumors; Compound 1 0.3 mg/kg): 0%
MST (EL4 tumors; Compound 1 0.3 mg/kg): 9 days
ILS (%) (EL4 tumors; Compound 1 1 mg/kg): 35.7%
MST (EL4 tumors; Compound 1 1 mg/kg): 14 days
RTV at day 7 (EL4 tumors; Cpd. 1 0.3 mg/kg): 21.9 ± 1.51
RTV at day 7 (EL4 tumors; Cpd. 1 1 mg/kg): 11.2 ± 1.25
Tumor volume (Mean ± SEM) (EL4 tumors; Day 0, Cpd. 1 0.3 mg/kg): 65 ± 3 mm^3
Tumor volume (Mean ± SEM) (EL4 tumors; Day 0, Cpd. 1 1 mg/kg): 65 ± 3 mm^3
Tumor volume (Mean ± SEM) (EL4 tumors; Day 2, Cpd. 1 0.3 mg/kg): 245 ± 6 mm^3
Tumor volume (Mean ± SEM) (EL4 tumors; Day 2, Cpd. 1 1 mg/kg): 194 ± 15 mm^3
Tumor volume (Mean ± SEM) (EL4 tumors; Day 5, Cpd. 1 0.3 mg/kg): 763 ± 29 mm^3
Tumor volume (Mean ± SEM) (EL4 tumors; Day 5, Cpd. 1 1 mg/kg): 613 ± 62 mm^3
T/C (EL4 tumors; Day 7, Cpd. 1 0.3 mg/kg): 73.86%
TGI (EL4 tumors; Day 7, Cpd. 1 0.3 mg/kg): 28.88%
Tumor volume (Mean ± SEM) (EL4 tumors; Day 7, Cpd. 1 0.3 mg/kg): 1391 ± 41 mm^3
T/C (EL4 tumors; Day 7, Cpd. 1 1 mg/kg): 37.76%
TGI (EL4 tumors; Day 7, Cpd. 1 1 mg/kg): 64.42%
Tumor volume (Mean ± SEM) (EL4 tumors; Day 7, Cpd. 1 1 mg/kg): 728 ± 96 mm^3
